Source: ChEMBL document CHEMBL1201862, “PubChem BioAssay data set” (2004)
Active and inactive are the calls of the source.

What was measured:
HeLa = test: Cytotoxicity counterscreen assay for transcriptional activators of heat shock protein 70 (Hsp70). [Related pubchem assays: 1203, 1252 ]; format: functional; details: Homo sapiens;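 note: cells exposed to compound for 16 hours before readout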
[1] = target: T1, Neuropeptide Y receptor type 1 (Homo sapiens, UniProt P25929); test: IC50 of human NPY-Y1 blockers – cell-based, dose response (AID 1277); format: functional
[2] = target: T2, Rac GTPase-activating protein 1 (Homo sapiens, UniProt Q9H0H5); test: blockers of MgcRacGAP-driven Rac1 GTP hydrolysis – biochemical, ADP Hunter fluorescence, primary and confirmatory, confirmation (AID 624330); format: functional
T2 sequence (Q9H0H5 whole entry): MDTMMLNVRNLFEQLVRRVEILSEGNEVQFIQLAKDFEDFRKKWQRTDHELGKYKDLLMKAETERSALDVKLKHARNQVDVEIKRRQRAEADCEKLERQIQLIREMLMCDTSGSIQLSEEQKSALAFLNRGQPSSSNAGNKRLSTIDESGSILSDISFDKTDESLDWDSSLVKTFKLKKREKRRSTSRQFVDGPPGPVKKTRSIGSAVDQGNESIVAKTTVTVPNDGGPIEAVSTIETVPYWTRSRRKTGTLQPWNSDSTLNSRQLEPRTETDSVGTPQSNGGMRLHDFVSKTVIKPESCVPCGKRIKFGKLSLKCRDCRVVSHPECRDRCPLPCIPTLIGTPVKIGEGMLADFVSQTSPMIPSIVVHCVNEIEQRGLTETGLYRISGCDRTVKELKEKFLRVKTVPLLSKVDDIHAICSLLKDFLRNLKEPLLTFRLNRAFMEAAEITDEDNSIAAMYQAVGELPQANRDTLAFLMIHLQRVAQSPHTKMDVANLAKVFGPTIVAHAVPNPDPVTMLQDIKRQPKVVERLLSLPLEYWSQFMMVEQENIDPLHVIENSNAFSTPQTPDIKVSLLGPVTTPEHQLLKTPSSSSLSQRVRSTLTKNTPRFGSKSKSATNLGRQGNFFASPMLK

[3] = target: T3, Neuropeptide Y receptor type 2 (Homo sapiens, UniProt P49146); test: IC50 for human NPY-Y2 blockade – cell-based, counter-screen for NPY-Y1 antagonist project, dose response (AID 1278); format: functional
[4] = fluconazole-exposed Candida albicans growth modulators – fluorescence, retest, confirmation (AID 2467); format: functional, cell-based
[5] = NIH-3T3 fibroblast cytotoxicity, dose response, cytotoxicity control, cell-based, fluorescence, Alamar Blue, secondary assay (AID 2327); format: functional;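 note: NIH-3T3 mouse fibroblasts cultured with fluconazole at 8 µg/mL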
[6] = mitochondrial function rescue without frataxin homolog – Friedreich's ataxia, plus single-dose screen, dose response (AID 1465); format: functional;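 note: yeast depleted of Yfh1p frataxin homolog grown on glycerol needing respiration; WST-1 tetrazolium dye reduction as measure of cellular dehydrogenase metabolic activity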
Nonstructural protein 1 = Nonstructural protein 1 (Influenza A virus, UniProt Q194T2); format: functional, Influenza A virus (A/California/07/2009(H1N1))
INS1 = test: INS-1E survival protection against cytokine death – cell-based, luminescence, retest, dose response (AID 449756); format: functional; details: Rattus norvegicus;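 note: cell death triggered by IL-1 beta plus TNF-alpha plus IFN-gamma mixture; protective hits raise ATP signal compared with cytokine alone wells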
Ion channel NompC [7] = target: T4, Ion channel NompC (Danio rerio, UniProt Q7T1G6); test: Fluorescence counterscreen assay for TRPML3 agonists: dose response cell-based high-throughput screening assay to identify agonists of the transient receptor potential channel N1 (TRPN1). [Related pubchem assays: 1526, 1424, 1448 ]; format: functional
[8] = target: T5, Calpain-2 catalytic subunit (Sus scrofa, UniProt P43367); test: m-calpain protease blockers, concentration series – biochemical, fluorogenic peptide substrate, dose response (AID 1420); format: functional
T5 sequence (P43367 whole entry): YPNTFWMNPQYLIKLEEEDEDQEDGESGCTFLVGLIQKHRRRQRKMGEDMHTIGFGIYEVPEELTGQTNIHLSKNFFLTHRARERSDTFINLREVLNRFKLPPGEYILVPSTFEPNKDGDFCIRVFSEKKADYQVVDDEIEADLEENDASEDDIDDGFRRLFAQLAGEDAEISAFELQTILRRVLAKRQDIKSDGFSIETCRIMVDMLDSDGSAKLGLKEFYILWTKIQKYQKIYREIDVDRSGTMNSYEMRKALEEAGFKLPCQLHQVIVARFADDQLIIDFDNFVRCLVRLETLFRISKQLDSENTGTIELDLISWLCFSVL

Ion channel NompC [9] = target: T4, Ion channel NompC; test: Late stage counterscreen for the probe development effort to identify selective agonists of the Transient Receptor Potential Channels 3 (TRPML3): fluorescence-based cell-based dose response assay for TRPN1 agonists.; format: functional
Mucolipin-3 = Mucolipin-3 (Homo sapiens, UniProt Q8TDD5); test: Dose response cell-based high-throughput screening assay for agonists of the transient receptor potential channel ML3 (TRPML3). [Related pubchem assays: 1526, 1424, 1448 ]; format: functional
Protein RecA = target: T6, Protein RecA (Mycobacterium tuberculosis, UniProt P9WHJ3); test: Fluorescence Cell-Free Homogeneous Dose Retest to Identify Inhibitors of RecA-Intein Splicing Activity. [Related pubchem assays (depositor defined):AID2097, AID2223, AID489010, AID492950]; format: functional
T6 sequence (P9WHJ3 whole entry): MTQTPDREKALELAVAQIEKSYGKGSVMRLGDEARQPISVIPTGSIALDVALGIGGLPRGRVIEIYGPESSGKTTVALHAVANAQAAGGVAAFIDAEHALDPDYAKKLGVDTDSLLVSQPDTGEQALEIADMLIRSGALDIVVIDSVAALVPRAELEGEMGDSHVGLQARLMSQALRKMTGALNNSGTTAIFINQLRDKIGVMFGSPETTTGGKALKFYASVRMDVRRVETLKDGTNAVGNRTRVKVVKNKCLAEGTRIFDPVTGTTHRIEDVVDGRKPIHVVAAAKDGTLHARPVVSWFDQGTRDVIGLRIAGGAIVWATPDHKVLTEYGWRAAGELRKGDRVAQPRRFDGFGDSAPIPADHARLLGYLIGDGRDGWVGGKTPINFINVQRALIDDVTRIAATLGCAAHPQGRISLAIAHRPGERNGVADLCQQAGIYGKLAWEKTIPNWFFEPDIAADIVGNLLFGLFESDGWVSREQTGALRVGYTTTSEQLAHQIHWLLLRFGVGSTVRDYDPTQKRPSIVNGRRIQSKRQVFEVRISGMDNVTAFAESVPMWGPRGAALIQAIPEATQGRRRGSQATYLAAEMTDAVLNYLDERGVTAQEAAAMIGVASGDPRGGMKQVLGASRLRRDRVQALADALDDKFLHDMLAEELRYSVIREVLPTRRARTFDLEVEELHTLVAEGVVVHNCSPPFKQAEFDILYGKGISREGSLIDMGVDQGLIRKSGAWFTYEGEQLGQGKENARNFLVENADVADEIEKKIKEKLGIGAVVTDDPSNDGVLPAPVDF

[10] = CCR5-tropic HIV-1 fusion blockers – cell-based, CCR5-tropic Env, dose response (AID 2279); format: functional
[11] = Luminescence Cell-Based Dose Retest to Confirm Inhibitors of Cancer Stem Cells. [Related pubchem assays (depositor defined):AID2717, AID2721]; format: functional; details: Homo sapiens
[12] = target: T7, Replicative DNA helicase DnaB (Mycobacterium tuberculosis, UniProt P9WMR3); test: DnaB intein splicing inhibitors, dose response, biochemical, cell-free fluorescence (AID 449749); format: functional
T7 sequence (P9WMR3 whole entry): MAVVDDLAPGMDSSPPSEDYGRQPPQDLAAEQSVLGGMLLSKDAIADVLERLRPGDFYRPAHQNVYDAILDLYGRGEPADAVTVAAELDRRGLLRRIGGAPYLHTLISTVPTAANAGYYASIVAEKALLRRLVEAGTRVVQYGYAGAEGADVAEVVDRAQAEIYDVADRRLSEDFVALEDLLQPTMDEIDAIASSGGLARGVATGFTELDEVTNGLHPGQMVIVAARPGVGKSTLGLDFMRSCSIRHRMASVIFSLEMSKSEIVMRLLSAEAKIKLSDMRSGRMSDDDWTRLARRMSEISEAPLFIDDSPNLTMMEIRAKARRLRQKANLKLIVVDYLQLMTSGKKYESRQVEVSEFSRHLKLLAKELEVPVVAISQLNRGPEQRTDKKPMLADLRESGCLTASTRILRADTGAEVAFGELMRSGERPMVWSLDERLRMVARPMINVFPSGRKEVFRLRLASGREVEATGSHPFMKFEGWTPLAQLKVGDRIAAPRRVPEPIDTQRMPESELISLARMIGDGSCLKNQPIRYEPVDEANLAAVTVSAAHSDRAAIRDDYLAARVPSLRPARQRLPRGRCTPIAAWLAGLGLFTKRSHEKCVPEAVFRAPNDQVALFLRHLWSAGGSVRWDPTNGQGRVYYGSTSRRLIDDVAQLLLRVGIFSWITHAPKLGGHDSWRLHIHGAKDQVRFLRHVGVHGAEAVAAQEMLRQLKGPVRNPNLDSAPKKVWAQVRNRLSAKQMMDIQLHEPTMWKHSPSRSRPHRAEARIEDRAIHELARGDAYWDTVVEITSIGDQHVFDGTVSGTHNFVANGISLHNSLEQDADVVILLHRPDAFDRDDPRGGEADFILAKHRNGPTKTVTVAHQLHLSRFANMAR

[13] = A Cell Based Secondary Assay To Explore Cytotoxicity of Compounds that Sensitize Mycobacterium Tuberculosis to Beta-Lactam Antibiotics.; format: functional
[14] = target: T3, Neuropeptide Y receptor type 2; format: functional, cell-based
[15] = NIH3T3 cell viability loss – ATP luminescence, mouse fibroblasts, counter-screen, dose response (AID 2010); format: functional, cell-based;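 note: cells exposed to compound for about 90 hours before reading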
[16] = Trypanosoma cruzi growth suppression in host cells – NIH3T3 host cells, beta-gal luminescence, confirmation (AID 2044); format: functional, cell-based;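 note: intracellular parasites grown in NIH/3T3 mouse fibroblasts as host cells; luminescent beta-galactosidase reporter signal from transgenic T. cruzi replicating inside host cells; inhibitors lower the luminescence signal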
[17] = target: T1, Neuropeptide Y receptor type 1; format: functional
NS3 = NS3 (Hepatitis C virus, UniProt A3EZJ3); test: PubChem AID 2173; set-up: species or system Hepacivirus hominis
[18] = target: T8, Carboxy-terminal domain RNA polymerase II polypeptide A small phosphatase 1 (Homo sapiens, UniProt Q9GZU7); test: CTDSP1 inhibitors, concentration-response, biochemical, absorbance readout, ultra-high-throughput screen actives (AID 540297); format: functional
T8 sequence (Q9GZU7 whole entry): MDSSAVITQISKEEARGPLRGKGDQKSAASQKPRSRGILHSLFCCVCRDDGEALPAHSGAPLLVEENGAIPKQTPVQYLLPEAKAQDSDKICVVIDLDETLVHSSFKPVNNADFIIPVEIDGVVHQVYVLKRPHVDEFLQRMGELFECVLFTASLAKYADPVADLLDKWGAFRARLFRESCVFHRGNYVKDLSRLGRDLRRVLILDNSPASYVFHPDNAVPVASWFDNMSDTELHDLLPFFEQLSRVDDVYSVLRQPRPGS

[19] = Luminescence-based counterscreen assay for KLF5 inhibitors: dose response cell-based high throughput screening assay to identify cytotoxic compounds using the IEC-6 intestinal epithelial cell line. [Related pubchem assays: 1700 (Primary screen.), 1834 (Confirmation screen.), 1858 (Summary AID.), 1905 (Counterscreen.)]; format: functional

T1 sequence (P25929 whole entry): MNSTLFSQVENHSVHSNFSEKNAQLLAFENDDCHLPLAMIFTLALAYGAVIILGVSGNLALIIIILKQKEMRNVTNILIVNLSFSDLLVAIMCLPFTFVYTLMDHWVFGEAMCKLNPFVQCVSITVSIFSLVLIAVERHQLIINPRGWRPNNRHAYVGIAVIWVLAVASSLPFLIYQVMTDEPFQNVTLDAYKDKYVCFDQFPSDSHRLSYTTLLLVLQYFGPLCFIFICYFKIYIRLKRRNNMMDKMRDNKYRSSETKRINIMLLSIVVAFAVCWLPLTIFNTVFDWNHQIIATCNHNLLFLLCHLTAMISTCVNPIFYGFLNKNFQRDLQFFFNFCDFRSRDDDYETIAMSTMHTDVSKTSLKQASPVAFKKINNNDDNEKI
T4 sequence (Q7T1G6 whole entry): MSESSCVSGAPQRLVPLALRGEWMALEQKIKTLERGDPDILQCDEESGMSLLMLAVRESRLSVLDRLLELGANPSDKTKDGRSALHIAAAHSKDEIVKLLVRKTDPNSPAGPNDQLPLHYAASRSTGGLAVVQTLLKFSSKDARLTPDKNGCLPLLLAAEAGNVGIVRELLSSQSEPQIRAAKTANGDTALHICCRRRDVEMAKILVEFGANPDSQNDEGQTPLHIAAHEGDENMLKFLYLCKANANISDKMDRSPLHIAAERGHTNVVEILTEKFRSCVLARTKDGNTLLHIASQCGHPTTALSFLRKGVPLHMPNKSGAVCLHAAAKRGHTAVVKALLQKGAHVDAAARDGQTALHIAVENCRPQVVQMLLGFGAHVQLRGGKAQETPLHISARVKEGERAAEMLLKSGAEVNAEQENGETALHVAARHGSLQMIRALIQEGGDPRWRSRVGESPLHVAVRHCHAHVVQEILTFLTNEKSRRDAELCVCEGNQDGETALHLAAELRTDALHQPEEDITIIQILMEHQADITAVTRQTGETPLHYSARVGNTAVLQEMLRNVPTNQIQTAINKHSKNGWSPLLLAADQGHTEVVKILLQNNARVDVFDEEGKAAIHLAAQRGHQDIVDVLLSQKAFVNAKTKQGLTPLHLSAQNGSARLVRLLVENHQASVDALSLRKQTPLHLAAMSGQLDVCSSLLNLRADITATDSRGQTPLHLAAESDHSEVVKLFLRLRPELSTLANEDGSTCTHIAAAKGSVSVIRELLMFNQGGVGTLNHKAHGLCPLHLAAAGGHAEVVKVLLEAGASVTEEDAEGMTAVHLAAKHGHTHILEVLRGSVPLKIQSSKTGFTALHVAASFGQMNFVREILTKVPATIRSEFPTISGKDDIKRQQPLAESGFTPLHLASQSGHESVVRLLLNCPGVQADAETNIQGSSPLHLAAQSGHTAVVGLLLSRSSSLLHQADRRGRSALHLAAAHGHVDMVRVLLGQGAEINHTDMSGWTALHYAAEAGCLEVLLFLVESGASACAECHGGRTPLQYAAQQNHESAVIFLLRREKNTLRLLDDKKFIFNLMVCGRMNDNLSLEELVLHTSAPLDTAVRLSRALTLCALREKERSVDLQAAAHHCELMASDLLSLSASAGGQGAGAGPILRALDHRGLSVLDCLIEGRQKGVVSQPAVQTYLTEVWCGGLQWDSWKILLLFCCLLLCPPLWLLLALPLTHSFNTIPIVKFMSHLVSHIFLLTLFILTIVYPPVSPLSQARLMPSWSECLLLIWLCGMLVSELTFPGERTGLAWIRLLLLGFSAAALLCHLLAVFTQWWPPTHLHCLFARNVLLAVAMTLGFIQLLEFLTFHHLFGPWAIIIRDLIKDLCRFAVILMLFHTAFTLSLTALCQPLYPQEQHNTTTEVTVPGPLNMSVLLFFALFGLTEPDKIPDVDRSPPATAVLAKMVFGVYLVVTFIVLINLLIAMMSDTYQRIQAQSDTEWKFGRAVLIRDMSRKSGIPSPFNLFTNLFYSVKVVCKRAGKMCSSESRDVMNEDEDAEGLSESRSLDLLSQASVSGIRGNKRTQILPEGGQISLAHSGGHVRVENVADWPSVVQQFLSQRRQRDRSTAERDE
T3 sequence (P49146 whole entry): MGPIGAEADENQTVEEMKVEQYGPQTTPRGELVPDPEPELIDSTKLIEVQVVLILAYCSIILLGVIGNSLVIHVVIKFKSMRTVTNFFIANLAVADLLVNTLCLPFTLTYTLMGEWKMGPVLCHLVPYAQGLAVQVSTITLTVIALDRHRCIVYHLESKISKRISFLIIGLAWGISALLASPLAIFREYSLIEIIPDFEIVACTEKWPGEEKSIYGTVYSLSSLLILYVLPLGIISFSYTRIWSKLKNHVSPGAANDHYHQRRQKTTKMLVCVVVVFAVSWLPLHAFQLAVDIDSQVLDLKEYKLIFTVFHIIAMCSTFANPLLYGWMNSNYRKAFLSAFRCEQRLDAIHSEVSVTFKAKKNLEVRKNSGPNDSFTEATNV
Sequence of NS3 (A3EZJ3 whole entry, the tested form may be a part): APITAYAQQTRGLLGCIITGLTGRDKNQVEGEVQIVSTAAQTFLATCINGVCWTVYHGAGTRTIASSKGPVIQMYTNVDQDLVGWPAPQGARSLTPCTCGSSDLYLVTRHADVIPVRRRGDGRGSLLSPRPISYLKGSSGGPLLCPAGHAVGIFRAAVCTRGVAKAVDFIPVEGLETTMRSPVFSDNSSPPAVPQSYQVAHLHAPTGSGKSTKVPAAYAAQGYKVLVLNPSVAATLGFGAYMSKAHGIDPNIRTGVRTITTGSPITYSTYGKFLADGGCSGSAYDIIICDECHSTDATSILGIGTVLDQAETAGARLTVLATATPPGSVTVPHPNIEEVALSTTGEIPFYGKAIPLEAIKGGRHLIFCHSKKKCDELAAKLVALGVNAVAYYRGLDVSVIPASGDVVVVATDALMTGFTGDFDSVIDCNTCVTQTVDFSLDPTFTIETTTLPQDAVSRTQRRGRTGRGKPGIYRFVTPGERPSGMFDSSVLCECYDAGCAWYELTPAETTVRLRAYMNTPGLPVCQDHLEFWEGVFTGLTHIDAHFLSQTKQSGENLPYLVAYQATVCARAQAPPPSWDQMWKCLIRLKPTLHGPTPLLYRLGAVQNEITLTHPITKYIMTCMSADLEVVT
Sequence of Nonstructural protein 1 (Q194T2 whole entry): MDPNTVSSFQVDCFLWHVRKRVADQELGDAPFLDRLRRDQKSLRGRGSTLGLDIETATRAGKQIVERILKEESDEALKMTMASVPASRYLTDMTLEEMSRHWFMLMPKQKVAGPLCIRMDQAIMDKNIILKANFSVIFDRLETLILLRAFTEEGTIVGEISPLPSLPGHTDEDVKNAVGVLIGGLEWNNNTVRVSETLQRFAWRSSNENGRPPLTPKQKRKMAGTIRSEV
Sequence of Mucolipin-3 (Q8TDD5 whole entry): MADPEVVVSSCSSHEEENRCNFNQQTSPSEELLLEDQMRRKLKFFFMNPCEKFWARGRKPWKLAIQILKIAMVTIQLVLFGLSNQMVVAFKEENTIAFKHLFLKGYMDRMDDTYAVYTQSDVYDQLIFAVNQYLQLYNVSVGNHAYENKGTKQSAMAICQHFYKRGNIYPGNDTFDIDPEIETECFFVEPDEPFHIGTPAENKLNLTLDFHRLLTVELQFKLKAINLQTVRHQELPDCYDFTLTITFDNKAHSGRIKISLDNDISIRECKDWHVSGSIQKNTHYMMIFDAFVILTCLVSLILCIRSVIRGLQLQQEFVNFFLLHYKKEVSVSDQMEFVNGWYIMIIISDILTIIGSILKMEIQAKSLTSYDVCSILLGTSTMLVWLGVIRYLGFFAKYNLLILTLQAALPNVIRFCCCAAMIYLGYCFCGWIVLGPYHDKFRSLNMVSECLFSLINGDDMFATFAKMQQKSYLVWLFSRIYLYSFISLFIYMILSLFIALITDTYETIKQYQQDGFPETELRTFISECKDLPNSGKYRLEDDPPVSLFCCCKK

O=C(CCCn1c(=O)c2sccc2n(Cc2cc(=O)n3ccccc3n2)c1=O)NCc1ccco1
IC50 (cells): 36.6 µM (active)

Cc1ccc(N=C(S)NC(NC(=O)c2ccccc2)C(Cl)(Cl)Cl)c(C)c1 (configuration not stated)
CC50 (HeLa): 47 µM (not active)

COc1ccc(Oc2c[nH]nc2-c2ccc(O)cc2O)cc1
IC50 [1]: > 35 µM (not active)
IC50 [2]: 28.3 µM (active)
IC50 [3]: > 35 µM (not active)

Cc1ccc2cc(C3C(C#N)=C(N)Oc4c3ccc3cccnc43)c(O)nc2c1 (configuration not stated)
EC50 [4]: > 38 µM (not active)
EC50 [5]: > 150 µM (inactive)
EC50 [6]: > 100 µM (active)
IC50 (Nonstructural protein 1): 14.3 µM (active)
AC50 (INS1): 1.02 µM (active)

CCOc1ccc(S(=O)(=O)N2CCCCC2)c(C)c1C
EC50 (Ion channel NompC [7]): > 29.9 µM (not active)
IC50 [8]: 32.6 µM (not active)
EC50 (Ion channel NompC [9]): > 29.9 µM (not active)
EC50 (Mucolipin-3): 1.43 µM (active)

Cc1nn(CCc2nn[nH]n2)c2nc(-c3ccc(C4CCCCC4)cc3)cc(C(F)(F)F)c12
EC50 (Protein RecA): 38.1 µM (active)
IC50 [10]: 21.7 µM (active)
AC50 [11]: 2.14 µM (active)
AC50 [12]: 3.83 µM (active)
CC50 [13]: 34.4 µM (active)

CN1CCN(c2ccccc2NC(=O)c2ccc(-c3ccc(Cl)cc3Cl)o2)CC1
IC50 [14]: > 12 µM (not active)
AC50 [11]: 3.09 µM (active)
EC50 [15]: > 60 µM (not active)
EC50 [16]: 1.06 µM (active)
IC50 [17]: 4.46 µM (active)

Cc1ccc(C(=O)O)cc1-c1ccc(/C=C2\SC(=O)N(CC(=O)Nc3ccccc3)C2=O)o1
IC50 (NS3): 5.39 µM (active)
IC50 [18]: 2.75 µM (active)

COc1ccc(/C=N/NC(=O)CCn2c3ccccc3c3ccccc32)cc1O
IC50 [19]: 2.02 µM (active)
